Publication PMC12591484 (PLOS One, 2025)
Marks after values point to notes of the source that are not given here.

Legend:
Assay in all cases: Drug protection from pCMBS modification (SCAMP)
Type in all cases: cell-based
Parameters in all cases: key: +: SCAMP is Substituted Cysteine Modification and Protection and is positive when adding anesthetic to cysteine modifier significantly reduces persistent post-exposure effects due to covalent modification; -: Negative results are indicated by “–“ symbols
[1] = biological target: T1, α1β3γ2S301C GABAA receptors (Homo sapiens, UniProt P14867+P18507+P28472, S340C); details: results of this study (*)
T1 construct: expressed in transfected cells; host or cells: Xenopus oocytes injected with capped mRNAs mixed 1α:1β:5γ
T1 sequence (P14867 28-456): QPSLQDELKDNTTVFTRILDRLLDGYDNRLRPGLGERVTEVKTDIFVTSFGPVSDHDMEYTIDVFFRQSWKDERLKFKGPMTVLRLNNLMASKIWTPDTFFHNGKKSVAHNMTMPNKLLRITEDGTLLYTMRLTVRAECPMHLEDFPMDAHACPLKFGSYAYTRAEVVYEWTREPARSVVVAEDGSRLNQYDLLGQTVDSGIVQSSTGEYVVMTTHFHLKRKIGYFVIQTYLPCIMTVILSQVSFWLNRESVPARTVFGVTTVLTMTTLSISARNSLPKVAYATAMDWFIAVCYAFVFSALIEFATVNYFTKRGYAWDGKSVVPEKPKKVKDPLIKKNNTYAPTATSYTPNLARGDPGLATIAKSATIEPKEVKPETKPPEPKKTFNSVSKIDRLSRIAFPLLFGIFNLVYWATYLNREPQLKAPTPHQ
T1 sequence (P28472 26-473): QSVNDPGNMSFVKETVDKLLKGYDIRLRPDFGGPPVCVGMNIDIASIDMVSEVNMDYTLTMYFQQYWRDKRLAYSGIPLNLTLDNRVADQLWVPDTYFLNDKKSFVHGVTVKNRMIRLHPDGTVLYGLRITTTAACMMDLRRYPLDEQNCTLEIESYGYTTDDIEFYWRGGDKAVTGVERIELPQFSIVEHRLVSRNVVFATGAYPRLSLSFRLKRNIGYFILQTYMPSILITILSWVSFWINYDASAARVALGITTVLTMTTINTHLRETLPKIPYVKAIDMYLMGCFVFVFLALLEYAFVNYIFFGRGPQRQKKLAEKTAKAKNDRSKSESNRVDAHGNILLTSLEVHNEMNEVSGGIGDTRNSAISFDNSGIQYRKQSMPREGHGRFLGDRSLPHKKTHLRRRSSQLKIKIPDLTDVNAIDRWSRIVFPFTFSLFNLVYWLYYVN
T1 sequence (P18507 40-475 S340C): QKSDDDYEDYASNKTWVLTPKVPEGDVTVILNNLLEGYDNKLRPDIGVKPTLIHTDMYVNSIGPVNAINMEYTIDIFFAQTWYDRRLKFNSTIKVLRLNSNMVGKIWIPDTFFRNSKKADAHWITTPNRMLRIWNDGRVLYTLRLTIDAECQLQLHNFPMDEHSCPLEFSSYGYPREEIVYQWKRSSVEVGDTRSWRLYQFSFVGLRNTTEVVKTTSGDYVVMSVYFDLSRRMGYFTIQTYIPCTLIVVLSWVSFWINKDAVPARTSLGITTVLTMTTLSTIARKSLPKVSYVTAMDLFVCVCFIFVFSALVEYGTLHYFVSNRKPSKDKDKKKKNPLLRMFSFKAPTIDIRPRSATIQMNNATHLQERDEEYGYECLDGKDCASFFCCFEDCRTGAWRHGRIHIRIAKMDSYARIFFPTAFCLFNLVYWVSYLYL
Protocol: (§1) Experiments were performed in ND-96 buffer at room temperature (20–22°C). Oocytes were placed in a low-volume (30µl) flow chamber and impaled with borosilicate microelectrodes filled with 3M KCl (resistance 0.5–3 MΩ) and voltage-clamped at −50 mV (model OC-725C; Warner Instruments, Hamden, CT, USA). Superfusate solutions in ND-96 were delivered at 2 ml/min from glass syringe reservoirs via computer-controlled valves (VC-8; Warner Instruments), a micro-manifold (ALA-VM8; ALA Scientific Instruments, Farmingdale, NY, USA), and PTFE tubing. Currents were digitized at 200 Hz on a computer running ClampEx v8.0 software (Molecular Devices, San Jose, CA, USA). Digitized traces were filtered with a 10-Hz low-pass Bessel function, leak corrected and analyzed for peak amplitude off-line using Clampfit v8 software (Molecular Devices).
(§2) Drug protection from pCMBS modification was assessed under pCMBS exposure conditions that produced approximately half of the maximal modification ratio for each mutant receptor, and a least a value of 3. This approach balanced the magnitude of functional modification signals (smaller with less pCMBS exposure) against the challenge of using a reversibly bound ligand to competitively block an irreversible covalent cysteine-modifying reaction. […] Each oocyte was used in a single SCAMP experiment. […] Etomidate was used as a positive control for anesthetic protection in α1M236C and β3M286C mutants and as a negative control in α1S270C, α1A291C, β3L231C, γ2S301C, γ2I242C, and γ2L246C mutants. R-mTFD-MPAB was used as a positive control in α1S270C, α1A291C, β3L231C, and γ2LS301C mutants and as a negative control in α1M236C and β3M286C mutants. For each cysteine mutant and protective drug combination, five oocytes were studied.
(§3) Non-linear least squares fits and statistical analyses were performed in Prism 10.4.0. (GraphPad Software, San Diego, CA, USA). […] Protection (steric inhibition of pCMBS modification) was inferred when anesthetics produced significant reductions in modification ratios relative to control (no anesthetic) values. The statistical significance threshold was p < 0.05.

[2] = biological target: T2, α1β3M286Cγ2L GABAA receptors (Homo sapiens, UniProt P14867+P18507+P28472, M311C); details: results of this study (*); etomidate cell also cites [16]
T2 construct: expressed in transfected cells; host or cells: Xenopus oocytes injected with capped mRNA, 1α:1β:5γ
Protocol: as §1, §2, §3

[3] = biological target: T3, α1M236Cβ3γ2L GABAA receptors (Homo sapiens, UniProt P14867+P18507+P28472, M263C); details: results of this study (*); some cells also cite [9]
T3 construct: expressed in transfected cells; host or cells: Xenopus oocytes injected with capped mRNA, 1α:1β:5γ
Protocol: as §1, §2, §3

T3 sequence (P14867 28-456 M263C, one chain of several): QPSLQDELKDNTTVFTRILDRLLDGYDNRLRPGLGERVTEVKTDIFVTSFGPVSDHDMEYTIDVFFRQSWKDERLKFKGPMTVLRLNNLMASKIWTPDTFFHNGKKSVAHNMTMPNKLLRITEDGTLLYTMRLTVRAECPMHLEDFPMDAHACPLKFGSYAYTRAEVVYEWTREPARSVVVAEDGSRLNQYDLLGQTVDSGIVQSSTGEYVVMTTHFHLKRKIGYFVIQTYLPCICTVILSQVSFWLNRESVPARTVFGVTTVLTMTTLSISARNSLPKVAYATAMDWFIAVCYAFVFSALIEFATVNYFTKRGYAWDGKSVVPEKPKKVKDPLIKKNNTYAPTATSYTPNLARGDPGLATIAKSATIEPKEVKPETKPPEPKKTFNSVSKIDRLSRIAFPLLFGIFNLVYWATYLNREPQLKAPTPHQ
T3 sequence (P18507 40-475, one chain of several): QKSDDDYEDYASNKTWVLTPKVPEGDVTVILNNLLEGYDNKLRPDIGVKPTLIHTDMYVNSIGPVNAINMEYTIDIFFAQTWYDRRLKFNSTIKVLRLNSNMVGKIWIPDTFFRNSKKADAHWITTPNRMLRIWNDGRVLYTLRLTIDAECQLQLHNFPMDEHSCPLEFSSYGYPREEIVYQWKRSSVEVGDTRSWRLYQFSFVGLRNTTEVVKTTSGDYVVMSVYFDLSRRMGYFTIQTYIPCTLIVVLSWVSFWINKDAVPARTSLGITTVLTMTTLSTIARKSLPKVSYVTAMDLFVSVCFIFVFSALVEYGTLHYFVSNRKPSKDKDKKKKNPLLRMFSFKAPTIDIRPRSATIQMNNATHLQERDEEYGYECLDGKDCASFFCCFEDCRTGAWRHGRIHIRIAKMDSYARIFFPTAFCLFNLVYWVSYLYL
T2 sequence (P28472 26-473 M311C, one chain of several): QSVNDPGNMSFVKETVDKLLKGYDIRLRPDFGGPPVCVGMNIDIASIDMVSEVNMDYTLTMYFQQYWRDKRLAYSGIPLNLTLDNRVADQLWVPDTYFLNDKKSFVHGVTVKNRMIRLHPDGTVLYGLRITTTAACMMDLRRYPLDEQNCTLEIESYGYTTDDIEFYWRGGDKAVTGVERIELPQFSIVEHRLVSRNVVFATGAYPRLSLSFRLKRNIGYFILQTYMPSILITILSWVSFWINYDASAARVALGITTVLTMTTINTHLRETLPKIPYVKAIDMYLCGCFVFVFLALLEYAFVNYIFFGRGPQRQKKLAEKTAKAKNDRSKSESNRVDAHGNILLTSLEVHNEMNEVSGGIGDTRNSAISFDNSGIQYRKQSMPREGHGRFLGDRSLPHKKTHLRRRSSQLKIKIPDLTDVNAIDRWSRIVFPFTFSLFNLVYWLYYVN
T2 sequence (P18507 40-475, one chain of several): as the sequence (P18507 40-475, one chain of several) above

C=CCC1(c2cccc(C3(C(F)(F)F)N=N3)c2)C(=O)NC(=O)N(C)C1=O (stereo not drawn) [R-mTFD-MPAB, R-5-allyl-1-methyl-5-(m-trifluoromethyl-diazirynylphenyl) barbituric acid]
SCAMP result, γ2+ (M2, M3) S301 [1]: +*

CCOC(=O)c1cncn1[C@H](C)c1ccccc1 [etomidate, R-etomidate]
SCAMP result, β3+ (M2, M3) M286 [2]: +^[16], * | SCAMP result, α1– (M1) M236 [3]: +^[9], *
